Test results as given in US9650340B2, “5-fluoro-N-(pyridin-2-yl)pyridin-2-amine derivatives containing a sulfoximine group” (BAYER PHARMA AKTIENGESELLSCHAFT, priority 2012, dated 2017).
Values after ≈ are worked out from the molar mass of the structure shown.

Assays:
[1] = Equilibrium shake flask solubility assay, thermodynamic solubility in water pH 6.5; format: physicochemical; details: phosphate buffer pH 6.5, 24 h, room temperature; for solubility at 24 h: phosphate buffer, pH 6.5, aqueous buffer, thermodynamic from solid
Method: 4. Equilibrium Shake Flask Solubility Assay:
4a) Thermodynamic Solubility in Water
The thermodynamic solubility of compounds in water was determined by an equilibrium shake flask method (see for example: E. H. Kerns, L. Di: Drug-like Properties: Concepts, Structure Design and Methods, 276-286, Burlington, Mass., Academic Press, 2008). A saturated solution of the drug was prepared and the solution was mixed for 24 h to ensure that equilibrium was reached. The solution was centrifuged to remove the insoluble fraction and the concentration of the compound in solution was determined using a standard calibration curve. To prepare the sample, 2 mg solid compound was weighed in a 4 mL glass vial. 1 mL phosphate buffer pH 6.5 was added. The suspension was stirred for 24 hrs at room temperature. The solution was centrifuged afterwards. To prepare the sample for the standard calibration, 2 mg solid sample was dissolved in 30 mL acetonitrile. After sonification the solution was diluted with water to 50 mL. Sample and standards were quantified by HPLC with UV-detection. For each sample two injection volumes (5 and 50 μl) in triplicates were made. Three injection volumes (5 μl, 10 μl and 20 μl) were made for the standard.
The areas of sample- and standard injections as well as the calculation of the solubility value (in mg/l) were determined by using HPLC software (Waters Empower 2 FR).

[2] = molecular target: T1, human carbonic anhydrase-1 (Homo sapiens, UniProt P00915); experiment: Carbonic anhydrase assay, carbonic anhydrase-1; format: biochemical; details: read-out: Inhibition of Carbonic anhydrase-1 IC50
T1 construct: purchased Sigma C4396
T1 sequence (P00915 whole entry): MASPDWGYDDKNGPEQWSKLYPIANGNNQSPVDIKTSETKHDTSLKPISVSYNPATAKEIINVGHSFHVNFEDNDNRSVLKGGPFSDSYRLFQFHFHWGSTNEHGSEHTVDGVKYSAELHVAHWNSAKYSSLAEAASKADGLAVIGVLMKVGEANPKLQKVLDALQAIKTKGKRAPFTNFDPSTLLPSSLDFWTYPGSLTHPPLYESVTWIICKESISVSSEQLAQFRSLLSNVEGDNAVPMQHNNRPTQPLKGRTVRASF
Method: (§1) 6. Carbonic Anhydrase Assay
(§2) The principle of the assay is based on the hydrolysis of 4-nitrophenyl acetate by carbonic anhydrases (Pocker & Stone, Biochemistry, 1967, 6, 668), with subsequent photometric determination of the dye product 4-nitrophenolate at 400 nm by means of a 96-channel spectral photometer.
(§3) 2 μL of the test compounds, dissolved in DMSO (100-fold final concentration), in a concentration range of 0.03-10 μmol/L (final), was pipetted as quadruplicates into the wells of a 96-hole microtiter plate. Wells that contained the solvent without test compounds were used as reference values (1. Wells without carbonic anhydrase for correction of the non-enzymatic hydrolysis of the substrate, and 2. Wells with carbonic anhydrase for determining the activity of the non-inhibited enzyme).
(§4) 188 μL of assay buffer (10 mmol/L of Tris/HCl, pH 7.4, 80 mmol/L of NaCl), with or without 3 units/well of carbonic anhydrase-1 [=human carbonic anhydrase-1 (Sigma, #C4396)] in order to determine carbonic anhydrase-1 inhibition or 3 units/well of carbonic anhydrase-2 [=human carbonic anhydrase-2 (Sigma, #C6165)] for measuring carbonic anhydrase-2 inhibition, was pipetted into the wells of the microtiter plate.

[3] = molecular target: human carbonic anhydrase-2 (Homo sapiens, UniProt P00918); experiment: Carbonic anhydrase assay, carbonic anhydrase-2; format: biochemical; details: read-out: Inhibition of Carbonic anhydrase-2 IC50
Method: as §1, §2, §3, §4

Caco-2 cell monolayers = experiment: Caco-2 permeation assay; format: in vitro ADME, human; details: for Papp A-B (Mari) / Papp B-A (Mari): Caco-2, 2 μM test compound; for Papp A-B (Mari): apical to basolateral; for Papp B-A (Mari): basolateral to apical
Method: 5. Caco-2 Permeation Assay:
Caco-2 cells (purchased from DSMZ Braunschweig, Germany) were seeded at a density of 4.5×10^4 cells per well on 24 well insert plates, 0.4 μm pore size, and grown for 15 days in DMEM medium supplemented with 10% fetal bovine serum, 1% GlutaMAX (100×, GIBCO), 100 U/mL penicillin, 100 μg/mL streptomycin (GIBCO) and 1% non essential amino acids (100 ×). Cells were maintained at 37° C. in a humified 5% CO2 atmosphere. Medium was changed every 2-3 day. Before running the permeation assay, the culture medium was replaced by a FCS—free hepes-carbonate transport buffer (pH 7.2). For assessment of monolayer integrity the transepithelial electrical resistance (TEER) was measured. Test compounds were predissolved in DMSO and added either to the apical or basolateral compartment in final concentration of 2 μM in transport buffer. Before and after 2 h incubation at 37° C. samples were taken from both compartments. Analysis of compound content was done after precipitation with methanol by LC/MS/MS analysis. Permeability (Papp) was calculated in the apical to basolateral (A→B) and basolateral to apical (B→A) directions. The apparent permeability was calculated using following equation: Papp=(Vr/Po)(1/S)(P2/t)
Where Vr is the volume of medium in the receiver chamber, Po is the measured peak area or height of the test drug in the donor chamber at t=o, S the surface area of the monolayer, P2 is the measured peak area of the test drug in the acceptor chamber after 2 h of incubation, and t is the incubation time. The efflux ratio basolateral (B) to apical (A) was calculated by dividing the Papp B-A by the Papp A-B. In addition the compound recovery was calculated. The following reference compounds were used for the classification of the permeability class: Antipyrine, Pyrazosin, Verapamil, Fluvastatin, Cimetidine, Ranitidine, Atenolol, Sulfasalazine.

| solubility at 24 h [1] | IC50 [2] | IC50 [3] | Solubility in water at pH 6.5 [1] | Papp A-B (Mari) (Caco-2 cell monolayers) | Papp B-A (Mari) (Caco-2 cell monolayers) | Efflux ratio (Caco-2 cell monolayers; Caco-2, 2 μM, Papp B-A / Papp A-B) | Compound |
| --- | --- | --- | --- | --- | --- | --- | --- |
| 13 µg/mL (≈ 32.1 µM) | > 10 µM | > 10 µM | – | – | – | – | COc1cc(F)ccc1-c1cc(Nc2cc(CS(C)(=N)=O)ccn2)ncc1F (racemic) [Example 1, (rac)-5-Fluoro-4-(4-fluoro-2-methoxyphenyl)-N-{4-[(S-methylsulfonimidoyl)methyl]pyridin-2-yl}pyridin-2-amine] |
| 25 µg/mL (≈ 61.8 µM) | – | – | – | – | – | – | COc1cc(F)ccc1-c1cc(Nc2cc(CS(C)(=N)=O)ccn2)ncc1F (single isomer, unassigned; (+)) [Example 2, (+)-5-Fluoro-4-(4-fluoro-2-methoxyphenyl)-N-{4-[(S-methylsulfonimidoyl)methyl]pyridin-2-yl}pyridin-2-amine] |
| – | – | – | 27 mg/l | 13.3 ×10⁻⁶ cm/s | 19.7 ×10⁻⁶ cm/s | – | COc1cc(F)ccc1-c1cc(Nc2cc(CS(C)(=N)=O)ccn2)ncc1F (single isomer, unassigned; (-)) [Example 3, (−)-5-Fluoro-4-(4-fluoro-2-methoxyphenyl)-N-{4-[(S-methylsulfonimidoyl)methyl]pyridin-2-yl}pyridin-2-amine] |
| – | – | – | – | 4.7 ×10⁻⁶ cm/s | 6.2 ×10⁻⁶ cm/s | 1.3 | COc1cc(F)ccc1-c1cc(Nc2cc(CS(C)(=N)=O)cc(C(F)(F)F)n2)ncc1F (single isomer, unassigned; (-)) [Example 23, (−)-5-Fluoro-4-(4-fluoro-2-methoxyphenyl)-N-{4-[(S-methylsulfonimidoyl)methyl]-6-(trifluoromethyl)pyridin-2-yl}pyridin-2-amine] |
